# Test results as given in US9750481B2, “System and method for analyzing antegrade and retrograde blood flow” (Indiana University Research and Technology Corporation, priority 2014, dated 2017).
# Entries after “also recorded” stand apart in the source; their conditions may differ.
# Assays:
# [1] = test system: SFA endothelial function; assay: Superficial femoral artery flow mediated dilation (SFA FMD) during 3 hours of sitting, SIT vs VIT trial; format: in vivo, human; details: oral Vitamin C 1 g at 30 minutes and 500 mg at 1 hour 30 minutes, different at 1 hour (p=0.009), 2 hours (p=0.016), 3 hours (p=0.004)
# Description: Two screening visits and two sitting trials in random sequence, one with uninterrupted sitting (SIT) and one with oral Vitamin C during the sitting time (VIT) were conducted. Specifically, SIT represents prolonged 3 hours of sitting. VIT represents prolonged sitting with intermittent vitamin C. Flow mediated dilation (FMD) was measured at 0, 1, 2 and 3 hours. Subjects ingested 1 g vitamin C at 30 minutes and 500 mg at 1 hour 30 minutes. Subjects arrived at the laboratory after an overnight fast of at least 6 hours between 7:00 AM and 9:00 AM. The arrival time was matched for both trials within each subject. […] Subjects were allowed to move their arms, not vigorously, for example to use a computer or do light reading during the non-testing periods of the trials. Arm movement was not quantified. The flow mediated dilation (FMD) and other vascular function parameters were measured at baseline, 1 hour, 2 hours and 3 hours into testing. […] Endothelial function was measured using SFA FMD, measured in accordance with current guidelines. […] Diameter images and Doppler measurements of blood velocity were continuously recorded for 45 seconds at baseline prior to cuff inflation. […] Ultrasound images were continuously recorded at 5 frames•s^-1 with […] […] Blood velocities were determined using the systems and methods described herein after automated selection of the blood flow envelop throughout the measurement. […]
# [2] = test system: superficial femoral artery (SFA); assay: Shear rates in the SFA by Doppler ultrasound during 3 hours of sitting with oral Vitamin C (VIT trial); format: in vivo, human; details: Mean ± SD
# Description: Two screening visits and two sitting trials in random sequence, one with uninterrupted sitting (SIT) and one with oral Vitamin C during the sitting time (VIT) were conducted. Specifically, SIT represents prolonged 3 hours of sitting. VIT represents prolonged sitting with intermittent vitamin C. Flow mediated dilation (FMD) was measured at 0, 1, 2 and 3 hours. Subjects ingested 1 g vitamin C at 30 minutes and 500 mg at 1 hour 30 minutes. Subjects arrived at the laboratory after an overnight fast of at least 6 hours between 7:00 AM and 9:00 AM. The arrival time was matched for both trials within each subject. Subjects were also asked to refrain from any caffeinated drink for at least 8 hours before reporting to the lab. Upon their arrival in the lab, all subjects self-reported adhering to the fasting schedule. During both trials, the subjects remained seated for 3 hours without moving their legs or feet. Subjects were allowed to move their arms, not vigorously, for example to use a computer or do light reading during the non-testing periods of the trials. Arm movement was not quantified. The flow mediated dilation (FMD) and other vascular function parameters were measured at baseline, 1 hour, 2 hours and 3 hours into testing. The two trials were performed in random order, separated by a minimum of two and a maximum of seven days. The SIT trial was uninterrupted sitting for 3 hours, whereas in the VIT trial, subjects ingested two Vitamin C tablets; 1 g at 30 minutes and 500 mg at 1 hour 30 minutes during the sitting interval. In addition to imaging the arterial dimensions, Doppler ultrasound was used to concurrently measure SFA blood velocity. Doppler flow signals were corrected at an insonation angle of 60°, and the sample volume was placed in the middle of the artery. Diameter images and Doppler measurements of blood velocity were continuously recorded for 45 seconds at baseline prior to cuff inflation. The automatic blood pressure cuff was then rapidly inflated to 250 mmHg and maintained for 5 minutes until cuff deflation. Diameter and blood velocity recordings resumed prior to cuff deflation and continued for 5 minutes after deflation. Ultrasound images were continuously recorded at 5 frames•s^-1 with […] (TechSmith, Okemos, Mich., USA), and stored as .avi files. This procedure was repeated hourly across the sitting intervals. Off-line analysis of diameters was performed using automated edge-detection software (Brachial Analyzer, Medical Imaging Applications LLC, Coralville, IA, USA). This software allows the technician to determine a region of interest where the near and far vessel walls are most clear. The vessel wall borders are then detected using an optimal graph search-based segmentation that uses a combination of pixel density and image gradient as an objective function. All analyzed images were reviewed by the technician and edited when needed to ensure that diameter measurements were always determined from the intima-lumen interface at the near and far vessel wall. Blood velocities were determined using the systems and methods described herein after automated selection of the blood flow envelop throughout the measurement. The velocity-time integral was used to calculate the mean blood velocity for each cardiac cycle. Diameters and blood velocities were not ECG-gated. The peak dilation after cuff deflation was determined using the highest 3-s moving average and was presented as a percentage change from baseline diameter (FMD %). SFA shear rate was used as an estimate of arterial shear stress and was calculated for each FMD % at baseline and during the post occlusion period using the following formula: 4•Vm•D-1 where Vm is mean blood velocity (cm• s-1) and D is mean arterial diameter (cm). All measurements and analysis were performed by a single researcher (ST) who was blinded to the participant identity and treatment condition for each image file.
# [3] = 1 hr, oral Vitamin C 1 g at 30 minutes
# [4] = 2 hr, oral Vitamin C 1 g at 30 minutes and 500 mg at 1 hour 30 minutes
# [5] = 3 hr, oral Vitamin C 1 g at 30 minutes and 500 mg at 1 hour 30 minutes
# [6] = Baseline (0 hr), before Vitamin C ingestion, male subjects, sitting
smiles,measurement,setting,value
O=C1O[C@H]([C@@H](O)CO)C(O)=C1O [Vitamin C],Effect on decline of SFA FMD % during sitting,[1],prevented the decline in SFA FMD; also recorded: prevented the decline in endothelial function
same,Effect on decline of SFA FMD % during sitting,[1]; listed as VIT,preventing the decline of FMD
same,Antegrade shear rate in the SFA,[2]; [3],8.58 ± 6.91 s⁻¹
same,Mean shear rate in the SFA,[2]; [3],4.44 ± 4.23 s⁻¹
same,Antegrade shear rate in the SFA,[2]; [4],6.56 ± 3.08 s⁻¹
same,Mean shear rate in the SFA,[2]; [4],2.99 ± 2.6 s⁻¹
same,Antegrade shear rate in the SFA,[2]; [5],6.22 ± 2.39 s⁻¹
same,Mean shear rate in the SFA,[2]; [5],3.17 ± 2.14 s⁻¹
same,Antegrade shear rate in the SFA,[2]; [6],7.03 ± 3.5 s⁻¹
same,Mean shear rate in the SFA,[2]; [6],5.17 ± 7.54 s⁻¹
